Literature values as cited in patent US11044905B2, “Tablet with an antimycotic agent, medical device and method for preserving harvested corneas” (ALCHILIFE S.R.L., priority 2018, dated 2021).

Details: organ culture preservation, 31° C.

period of effective protection under conditions of use: ≤ 14 days
SMILES: C[C@@H]1[C@H](O)[C@@H](C)/C=C/C=C/C=C/C=C/C=C/C=C/C=C/[C@H](O[C@@H]2O[C@H](C)[C@@H](O)[C@H](N)[C@@H]2O)C[C@@H]2O[C@](O)(C[C@@H](O)C[C@@H](O)[C@H](O)CC[C@@H](O)C[C@@H](O)CC(=O)O[C@H]1C)C[C@H](O)[C@H]2C(=O)O [Amphotericin B]
